Experiment [1] deals with S. pneumoniae UC ® 9912. The experiment can be described thus: In vitro minimum inhibitory concentration (MIC) by agar dilution, gram-positive bacteria (Table 1). The experiment is classed as cell-based. Conditions: Streptococcus pneumoniae, UC9912. The source says: (§1) The oxazolidinone antibacterial agents of this invention have useful activity against a variety of microorganisms. The in vitro activity of compounds of this invention can be assessed by standard testing procedures such as the determination of minimum inhibitory concentration (MIC) by agar dilution as described in "Methods for Dilution Antimicrobial Susceptibility Tests for Bacteria That Grow Aerobically" (MFT) published January 1983 by the National Committee for Clinical Laboratory Standards, 771 East Lancaster Avenue, Villanova, Pa. 19084, USA. The activity of selected compounds of this invention against Staphylococcus aureus and Streptococcus pneumoniae are shown in Table 1.

Experiment [2] has as its system S. Aureus UC ® 9213. Described as above. The experiment is classed as cell-based. Conditions: Staphylococcus aureus, UC9213.
Description: as §1

The source of these data is patent publication US5977373A, “Thiadiazolyl and oxadiazolyl phenyl oxazolidinone antibacterial agents” (Pharmacia & Upjohn Company, priority 1998, dated 1999).

Converted amounts (≈) assume the structure as drawn.

As usually defined, the MIC is the least concentration at which growth counts as inhibited. The low end stands for greater potency, the high end for weaker potency.

Take `CC(=O)NC[C@H]1CN(c2ccc(-c3nnc(C(N)=O)s3)c(F)c2)C(=O)O1` [Example 2, (S)-5-[4-[5-[(Acetylamino)methyl]-2-oxo-3-oxazolidinyl]-2-fluorophenyl]-1,3,4-thiadiazole-2-carboxamide]: the MIC in experiment [1] was found to be 0.25 µg/mL (≈ 0.659 µM); in experiment [2] it was 0.5 µg/mL (≈ 1.32 µM).

Consider `CCCc1nnc(-c2ccc(N3C[C@H](CNC(C)=O)OC3=O)cc2F)s1` [Example 5, (S)-N-[[3-[3-Fluoro-4-(5-propyl-1,3,4-thiadiazol-2-yl)phenyl]-2-oxo-5-oxazolidinyl]methyl]acetamide], for which the MIC in experiment [1] was 0.25 µg/mL (≈ 0.661 µM); in experiment [2], 1 µg/mL (≈ 2.64 µM).

For the compound `COCc1nnc(-c2ccc(N3C[C@H](CNC(C)=O)OC3=O)cc2F)s1` [Example 12, (S)-N-[[3-[3-Fluoro-4-[5-(methoxymethyl)-1,3,4-thiadiazol-2-yl]phenyl]-2-oxo-5-oxazolidinyl]methyl]acetamide], the results for the MIC in experiment [1] and in experiment [2] were 0.25 µg/mL (≈ 0.657 µM) and 2 µg/mL (≈ 5.26 µM), respectively.

Consider `CC(=O)NC[C@H]1CN(c2ccc(-c3nnc(C(F)(F)F)s3)c(F)c2)C(=O)O1` [Example 15, (S)-N-[[3-[3-Fluoro-4-[5-(trifluoromethyl)-1,3,4-thiadiazol-2-yl]phenyl]-2-oxo-5-oxazolidinyl]methyl]acetamide], for which the results for the MIC in experiment [1] and in experiment [2] were 0.5 µg/mL (≈ 1.24 µM) and 2 µg/mL (≈ 4.95 µM), respectively.

For the compound `CC(=O)NC[C@H]1CN(c2ccc(-c3nnc(CCC(C)O)s3)c(F)c2)C(=O)O1` (stereo partly drawn) [Example 17, (5S)-N-[[3-[3-Fluoro-4-[5-(3-hydroxybutyl)-1,3,4-thiadiazol-2-yl]phenyl]-2-oxo-5-oxazolidinyl]methyl]acetamide], the MIC in experiment [1] amounted to 0.25 µg/mL (≈ 0.612 µM); in experiment [2], 2 µg/mL (≈ 4.9 µM).

Regarding `COC(=O)CCc1nnc(-c2ccc(N3C[C@H](CNC(C)=O)OC3=O)cc2F)s1` [Example 18, (S)-Methyl 5-[4-[5-[(acetylamino)methyl]-2-oxo-3-oxazolidinyl]-2-fluorophenyl]-1,3,4-thiadiazole-2-propanoate], the minimal inhibitory concentration (MIC) in experiment [1] was determined as 0.25 µg/mL (≈ 0.592 µM); in experiment [2], 2 µg/mL (≈ 4.73 µM).

In the case of `CC(=O)NC[C@H]1CN(c2ccc(-c3nnc(CCC(N)=O)s3)c(F)c2)C(=O)O1` [Example 19, (S)-5-[4-[5-[(Acetylamino)methyl]-2-oxo-3-oxazolidinyl]-2-fluorophenyl]-1,3,4-thiadiazole-2-propanamide], the MIC in experiment [1] was less than 0.125 µg/mL; in experiment [2] it was 8 µg/mL (≈ 19.6 µM).

Regarding `CSCc1nnc(-c2ccc(N3C[C@H](CNC(C)=O)OC3=O)cc2F)s1` [Example 21, (S)-N-[[3-[3-Fluoro-4-[5-[(methylthio)methyl]-1,3,4-thiadiazol-2-yl]phenyl]-2-oxo-5-oxazolidinyl]methyl]acetamide], the figures for the minimal inhibitory concentration (MIC) in experiment [1] and in experiment [2] were 0.25 µg/mL (≈ 0.631 µM) and 1 µg/mL (≈ 2.52 µM), respectively.

With `CC(=O)NC[C@H]1CN(c2ccc(-c3nnc(C[S+](C)[O-])s3)c(F)c2)C(=O)O1` (stereo partly drawn) [Example 22, (S)-N-[[3-[3-Fluoro-4-[5-[(methylsulfinyl)methyl]-1,3,4-thiadiazol-2-yl]phenyl]-2-oxo-5-oxazolidinyl]methyl]acetamide], the MIC in experiment [1] stood at 0.25 µg/mL (≈ 0.606 µM); in experiment [2], 8 µg/mL (≈ 19.4 µM).

As to `CSCCc1nnc(-c2ccc(N3C[C@H](CNC(C)=O)OC3=O)cc2F)s1` [Example 23, (S)-N-[[3-[3-Fluoro-4-[5-[2-(methylthio)ethyl]-1,3,4-thiadiazol-2-yl]phenyl]-2-oxo-5-oxazolidinyl]methyl]acetamide], the figures for the minimum inhibitory concentration (MIC) in experiment [1] and in experiment [2] were 0.25 µg/mL (≈ 0.609 µM) and 1 µg/mL (≈ 2.44 µM), respectively.

As for `CCOC(=O)Cc1nnc(-c2ccc(N3C[C@H](CNC(C)=O)OC3=O)cc2F)s1` [Example 25, (S)-Ethyl 5-[4-[5-[(acetylamino)methyl]-2-oxo-3-oxazolidinyl]-2-fluorophenyl]-1,3,4-thiadiazole-2-acetate], the MIC in experiment [1] was 0.25 µg/mL (≈ 0.592 µM); in experiment [2], 2 µg/mL (≈ 4.73 µM).

For the compound `CCOC(=O)c1nnc(-c2ccc(N3C[C@H](CNC(C)=O)OC3=O)cc2F)s1` [Example 27, (S)-Ethyl 5-[4-[5-[(acetylamino)methyl]-2-oxo-3-oxazolidinyl]-2-fluorophenyl]-1,3,4-thiadiazole-2-carboxylate], the MIC in experiment [1] was less than 0.125 µg/mL; in experiment [2], 8 µg/mL (≈ 19.6 µM).

`CC(=O)NC[C@H]1CN(c2ccc(-c3nnc(CC(C)O)s3)c(F)c2)C(=O)O1` (stereo partly drawn) [Example 28, (5S)-N-[[3-[3-Fluoro-4-[5-(2-hydroxypropyl)-1,3,4-thiadiazol-2-yl]phenyl]-2-oxo-5-oxazolidinyl]methyl]acetamide]: the MIC in experiment [1] was 0.25 µg/mL (≈ 0.634 µM); in experiment [2], 2 µg/mL (≈ 5.07 µM).

Regarding `CC(=O)NC[C@H]1CN(c2ccc(-c3nnc(N)s3)c(F)c2)C(=O)O1` [Example 30, (S)-N-[[3-[4-(5-Amino-1,3,4-thiadiazol-2-yl)-3-fluorophenyl]-2-oxo-5-oxazolidinyl]methyl]acetamide], the results for the minimal inhibitory concentration (MIC) in experiment [1] and in experiment [2] were 0.25 µg/mL (≈ 0.712 µM) and 4 µg/mL (≈ 11.4 µM), respectively.

Regarding `CC(=O)NC[C@H]1CN(c2ccc(-c3nsc(C(N)=O)n3)c(F)c2)C(=O)O1` [Example 33, (S)-3-[4-[5-[(Acetylamino)methyl]-2-oxo-3-oxazolidinyl]-2-fluorophenyl]-1,2,4-thiadiazole-5-carboxamide], the minimum inhibitory concentration (MIC) in experiment [1] was determined as 2 µg/mL (≈ 5.27 µM); in experiment [2], 16 µg/mL (≈ 42.2 µM).

As for `CC(=O)NC[C@H]1CN(c2ccc(-c3ncns3)c(F)c2)C(=O)O1` [Example 34, (S)-N-[[3-[3-Fluoro-4-(1,2,4-thiadiazol-5-yl)phenyl]-2-oxo-5-oxazolidinyl]methyl]acetamide], the minimal inhibitory concentration (MIC) in experiment [1] was 0.25 µg/mL (≈ 0.743 µM); in experiment [2], 1 µg/mL (≈ 2.97 µM).

Take `CC(=O)NC[C@H]1CN(c2ccc(-c3noc(C)n3)c(F)c2)C(=O)O1` [Example 35, (S)-N-[[3-[3-Fluoro-4-(5-methyl-1,2,4-oxadiazol-3-yl)phenyl]-2-oxo-5-oxazolidinyl]methyl]acetamide]: the MIC in experiment [1] came out at 4 µg/mL (≈ 12 µM); in experiment [2], 16 µg/mL (≈ 47.9 µM).

As for `CC(=O)NC[C@H]1CN(c2ccc(-c3ncon3)c(F)c2)C(=O)O1` [Example 36, (S)-N-[[3-[3-Fluoro-4-(1,2,4-oxadiazol-3-yl)phenyl]-2-oxo-5-oxazolidinyl]methyl]acetamide], the figures for the MIC in experiment [1] and in experiment [2] were 1 µg/mL (≈ 3.12 µM) and 4 µg/mL (≈ 12.5 µM), respectively.

Consider `CC(=O)NC[C@H]1CN(c2ccc(-c3noc(C(N)=O)n3)c(F)c2)C(=O)O1` [Example 37, (S)-3-[4-[5-[(Acetylamino)methyl]-2-oxo-3-oxazolidinyl]-2-fluorophenyl]-1,2,4-oxadiazole-5-carboxamide], for which the MIC was 1 µg/mL (≈ 2.75 µM) in experiment [1] and greater than 16 µg/mL in experiment [2].

Consider `CC(=O)NC[C@H]1CN(c2ccc(-c3noc(C#N)n3)c(F)c2)C(=O)O1` [Example 38, (S)-N-[[3-[4-(5-Cyano-1,2,4-oxadiazol-3-yl)-3-fluorophenyl]-2-oxo-5-oxazolidinyl]methyl]acetamide], for which the results for the MIC in experiment [1] and in experiment [2] were 2 µg/mL (≈ 5.79 µM) and greater than 16 µg/mL, respectively.

For `CC(=O)NC[C@H]1CN(c2ccc(-c3noc(C(F)(F)F)n3)c(F)c2)C(=O)O1` [Example 39, (S)-N-[[3-[3-Fluoro-4-[5-(trifluoromethyl)-1,2,4-oxadiazol-3-yl]phenyl]-2-oxo-5-oxazolidinyl]methyl]acetamide], the MIC is 8 µg/mL (≈ 20.6 µM) in experiment [1] and 16 µg/mL (≈ 41.2 µM) in experiment [2].

With `CC(=O)NC[C@H]1CN(c2ccc(-c3ncno3)c(F)c2)C(=O)O1` [Example 40, (S)-N-[[3-[3-Fluoro-4-(1,2,4-oxadiazol-5-yl)phenyl]-2-oxo-5-oxazolidinyl]methyl]acetamide], the minimum inhibitory concentration (MIC) in experiment [1] was 0.5 µg/mL (≈ 1.56 µM); in experiment [2], 2 µg/mL (≈ 6.24 µM).
